Data taken from patent publication US8623869B2, “Compounds useful as inhibitors of ATR kinase” (Vertex Pharmaceuticals Incorporated, priority 2010, dated 2014).
pKi: −log10 of the molar value.

molecular target: T1, full-length ATR (Homo sapiens, UniProt Q13535); assay: ATR Inhibition Assay (radioactive-phosphate incorporation); format: biochemical; settings: Ki(app); 5 nM full-length ATR, 10 μM ATP, 800 μM target peptide, 25° C.
T1 construct: Assays were carried out at 25° C. in the presence of 5 nM full-length ATR
T1 sequence (Q13535 whole entry): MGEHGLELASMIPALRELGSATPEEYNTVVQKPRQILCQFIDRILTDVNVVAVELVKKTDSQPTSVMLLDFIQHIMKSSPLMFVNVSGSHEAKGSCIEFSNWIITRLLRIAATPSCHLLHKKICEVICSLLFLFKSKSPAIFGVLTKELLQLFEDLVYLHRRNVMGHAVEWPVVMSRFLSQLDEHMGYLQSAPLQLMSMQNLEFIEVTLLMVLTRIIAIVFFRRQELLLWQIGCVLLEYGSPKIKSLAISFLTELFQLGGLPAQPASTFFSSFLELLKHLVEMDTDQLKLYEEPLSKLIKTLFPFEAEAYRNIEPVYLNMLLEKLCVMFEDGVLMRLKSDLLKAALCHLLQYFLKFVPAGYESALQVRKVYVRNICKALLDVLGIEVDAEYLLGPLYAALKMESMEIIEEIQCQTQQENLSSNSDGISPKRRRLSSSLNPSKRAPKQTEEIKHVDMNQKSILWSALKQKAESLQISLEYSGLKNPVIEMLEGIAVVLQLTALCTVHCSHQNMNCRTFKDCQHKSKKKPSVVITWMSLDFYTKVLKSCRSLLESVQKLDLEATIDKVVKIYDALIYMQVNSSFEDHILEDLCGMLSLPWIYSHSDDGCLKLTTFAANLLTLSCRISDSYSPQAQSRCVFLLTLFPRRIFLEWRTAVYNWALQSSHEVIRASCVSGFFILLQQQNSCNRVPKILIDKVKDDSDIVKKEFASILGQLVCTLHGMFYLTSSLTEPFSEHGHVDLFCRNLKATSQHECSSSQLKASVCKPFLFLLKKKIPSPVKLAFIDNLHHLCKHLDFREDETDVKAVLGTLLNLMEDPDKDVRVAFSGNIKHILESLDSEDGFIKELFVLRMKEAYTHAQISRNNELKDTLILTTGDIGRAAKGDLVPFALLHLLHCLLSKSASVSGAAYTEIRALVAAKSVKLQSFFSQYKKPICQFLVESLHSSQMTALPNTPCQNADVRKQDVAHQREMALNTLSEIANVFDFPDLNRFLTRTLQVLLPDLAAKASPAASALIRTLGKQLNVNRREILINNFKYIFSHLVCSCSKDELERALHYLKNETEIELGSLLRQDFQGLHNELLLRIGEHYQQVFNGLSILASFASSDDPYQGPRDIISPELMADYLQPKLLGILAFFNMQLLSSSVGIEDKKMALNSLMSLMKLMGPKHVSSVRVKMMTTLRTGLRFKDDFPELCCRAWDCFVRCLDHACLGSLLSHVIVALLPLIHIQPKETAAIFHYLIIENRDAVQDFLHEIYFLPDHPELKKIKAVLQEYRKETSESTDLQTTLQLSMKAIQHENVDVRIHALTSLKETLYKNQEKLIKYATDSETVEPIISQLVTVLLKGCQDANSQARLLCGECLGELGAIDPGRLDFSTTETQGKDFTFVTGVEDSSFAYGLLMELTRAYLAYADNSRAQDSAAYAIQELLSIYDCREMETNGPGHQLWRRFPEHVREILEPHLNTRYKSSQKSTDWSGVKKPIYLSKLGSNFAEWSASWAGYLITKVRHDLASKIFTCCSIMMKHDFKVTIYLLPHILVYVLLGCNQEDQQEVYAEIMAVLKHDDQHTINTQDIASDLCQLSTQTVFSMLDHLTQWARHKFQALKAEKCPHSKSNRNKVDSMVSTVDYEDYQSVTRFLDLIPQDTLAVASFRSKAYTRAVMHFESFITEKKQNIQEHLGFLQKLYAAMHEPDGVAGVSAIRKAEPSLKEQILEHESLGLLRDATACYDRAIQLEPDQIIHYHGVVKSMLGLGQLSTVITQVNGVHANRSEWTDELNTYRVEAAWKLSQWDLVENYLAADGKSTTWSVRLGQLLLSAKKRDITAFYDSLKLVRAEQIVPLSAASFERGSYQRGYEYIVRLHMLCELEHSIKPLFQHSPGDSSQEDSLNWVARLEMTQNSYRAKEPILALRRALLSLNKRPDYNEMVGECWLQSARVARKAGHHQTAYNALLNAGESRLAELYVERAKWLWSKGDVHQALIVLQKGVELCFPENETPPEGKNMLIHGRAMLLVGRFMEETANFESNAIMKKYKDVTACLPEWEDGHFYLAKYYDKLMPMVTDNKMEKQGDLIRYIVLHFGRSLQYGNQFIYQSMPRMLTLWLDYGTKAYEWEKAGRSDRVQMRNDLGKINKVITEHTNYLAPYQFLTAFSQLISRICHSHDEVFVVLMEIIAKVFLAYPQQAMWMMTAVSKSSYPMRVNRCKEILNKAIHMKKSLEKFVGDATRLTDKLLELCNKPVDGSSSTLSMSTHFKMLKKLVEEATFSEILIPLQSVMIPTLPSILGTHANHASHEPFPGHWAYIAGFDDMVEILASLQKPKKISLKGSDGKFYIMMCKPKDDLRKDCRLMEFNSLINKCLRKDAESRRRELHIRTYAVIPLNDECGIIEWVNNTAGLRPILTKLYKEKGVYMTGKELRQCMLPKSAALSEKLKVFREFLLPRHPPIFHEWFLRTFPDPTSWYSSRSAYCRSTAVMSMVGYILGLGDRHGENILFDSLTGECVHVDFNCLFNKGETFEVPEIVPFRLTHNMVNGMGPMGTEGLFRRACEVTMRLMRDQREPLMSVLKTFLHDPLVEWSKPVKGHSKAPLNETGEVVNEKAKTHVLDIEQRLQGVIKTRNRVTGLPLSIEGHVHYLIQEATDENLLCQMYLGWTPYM
Method: Compounds were screened for their ability to inhibit ATR kinase using a radioactive-phosphate incorporation assay. Assays were carried out in a mixture of 50 mM Tris/HCl (pH 7.5), 10 mM MgCl2 and 1 mM DTT. Final substrate concentrations were 10 μM [γ-33P]ATP (3mCi 33P ATP/mmol ATP, Perkin Elmer) and 800 μM target peptide (ASELPASQPQPFSAKKK).
Assays were carried out at 25° C. in the presence of 5 nM full-length ATR. An assay stock buffer solution was prepared containing all of the reagents listed above, with the exception of ATP and the test compound of interest. 13.5 μL of the stock solution was placed in a 96 well plate followed by addition of 2 μL of DMSO stock containing serial dilutions of the test compound (typically starting from a final concentration of 15 μM with 3-fold serial dilutions) in duplicate (final DMSO concentration 7%). The plate was pre-incubated for 10 minutes at 25° C. and the reaction initiated by addition of 15 μL [γ-33P]ATP (final concentration 10 μM).
The reaction was stopped after […] by the addition of 30 μL 0.1M phosphoric acid containing 2 mM ATP. A multiscreen phosphocellulose filter 96-well plate (Millipore, Cat no. MAPHN0B50) was pretreated with 100 μL 0.2M phosphoric acid prior to the addition of 45 μL of the stopped assay mixture. The plate was washed with 5×200 μL 0.2M phosphoric acid. After drying, 100 μL Optiphase ‘SuperMix’ liquid scintillation cocktail (Perkin Elmer) was added to the well prior to scintillation counting (1450 Microbeta Liquid Scintillation Counter, Wallac).
After removing mean background values for all of the data points, Ki(app) data were calculated from non-linear regression analysis of the initial rate data using the Prism software package (GraphPad Prism version 3.0cx for Macintosh, GraphPad Software, San Diego Calif., USA).

| Compound | pKi |
| --- | --- |
| CC(C)S(=O)(=O)c1ccc(-c2cnc3[nH]cc(-c4ccccc4O)c3n2)cc1 [Compound I-14, 2-[2-(4-isopropylsulfonylphenyl)-5H-pyrrolo[2,3-b]pyrazin-7-yl]phenol] | 7.30 to 8.00 |
| CC(C)S(=O)(=O)c1ccc(-c2cnc3[nH]cc(-c4cnc(N)cn4)c3n2)cc1 [Compound I-9, 5-[2-(4-isopropylsulfonylphenyl)-5H-pyrrolo[2,3-b]pyrazin-7-yl]pyrazin-2-amine] | < 7.30 |
| COc1ccc(-c2c[nH]c3ncc(-c4ccc(S(=O)(=O)C(C)C)cc4)nc23)cc1 [Compound I-29, 2-(4-isopropylsulfonylphenyl)-7-(4-methoxyphenyl)-5H-pyrrolo[2,3-b]pyrazine] | < 7.30 |
| COc1cc(-c2c[nH]c3ncc(-c4ccc(S(=O)(=O)C(C)C)cc4)nc23)ccn1 [Compound I-33, 2-(4-isopropylsulfonylphenyl)-7-(2-methoxy-4-pyridyl)-5H-pyrrolo[2,3-b]pyrazine] | ≥ 8.00 |
| CC(C)S(=O)(=O)c1ccc(-c2cnc3[nH]cc(-c4ccc5ncccc5c4)c3n2)cc1 [Compound I-40, 6-[2-(4-isopropylsulfonylphenyl)-5H-pyrrolo[2,3-b]pyrazin-7-yl]quinoline] | ≥ 8.00 |
| COc1ncc(-c2c[nH]c3ncc(-c4ccc(S(=O)(=O)C(C)C)cc4)nc23)cc1C [Compound I-38, 2-(4-isopropylsulfonylphenyl)-7-(6-methoxy-5-methyl-3-pyridyl)-5H-pyrrolo[2,3-b]pyrazine] | 7.30 to 8.00 |
| CC(C)S(=O)(=O)c1ccc(-c2cnc3[nH]cc(-c4ccc(N)nc4)c3n2)cc1 [Compound I-53, 5-[2-(4-isopropylsulfonylphenyl)-5H-pyrrolo[2,3-b]pyrazin-7-yl]pyridin-2-amine] | ≥ 8.00 |
| CC(C)S(=O)(=O)c1ccc(-c2cnc3[nH]cc(-c4ccsc4)c3n2)cc1 [Compound I-22, 2-(4-isopropylsulfonylphenyl)-7-(3-thienyl)-5H-pyrrolo[2,3-b]pyrazine] | 7.30 to 8.00 |
| CC(C)S(=O)(=O)c1ccc(-c2cnc3[nH]cc(-c4cc5cc(Br)ccc5s4)c3n2)cc1 [Compound I-54, 7-(5-bromobenzothiophen-2-yl)-2-(4-isopropylsulfonylphenyl)-5H-pyrrolo[2,3-b]pyrazine] | < 7.30 |
| COc1cccc(-c2c[nH]c3ncc(-c4ccc(S(=O)(=O)C(C)C)cc4)nc23)c1 [Compound I-30, 2-(4-isopropylsulfonylphenyl)-7-(3-methoxyphenyl)-5H-pyrrolo[2,3-b]pyrazine] | 7.30 to 8.00 |
| CC(C)S(=O)(=O)c1ccc(-c2cnc3[nH]cc(-c4cncc5ccccc45)c3n2)cc1 [Compound I-42, 4-[2-(4-isopropylsulfonylphenyl)-5H-pyrrolo[2,3-b]pyrazin-7-yl]isoquinoline] | 7.30 to 8.00 |
| COc1ccc2c(c1)cc(-c1c[nH]c3ncc(-c4ccc(S(=O)(=O)C(C)C)cc4)nc13)n2C(=O)OC(C)(C)C [Compound I-57, tert-butyl 2-[2-(4-isopropylsulfonylphenyl)-5H-pyrrolo[2,3-b]pyrazin-7-yl]-5-methoxy-indole-1-carboxylate] | < 7.30 |
| COc1ccc(-c2c[nH]c3ncc(-c4ccc(S(=O)(=O)C(C)C)cc4)nc23)cn1 [Compound I-31, 2-(4-isopropylsulfonylphenyl)-7-(6-methoxy-3-pyridyl)-5H-pyrrolo[2,3-b]pyrazine] | < 7.30 |
| CC(C)S(=O)(=O)c1ccc(-c2cnc3[nH]cc(-c4ccn(C)n4)c3n2)cc1 [Compound I-49, 2-(4-isopropylsulfonylphenyl)-7-(1-methylpyrazol-3-yl)-5H-pyrrolo[2,3-b]pyrazine] | 7.30 to 8.00 |
| CC(C)S(=O)(=O)c1ccc(-c2cnc3[nH]cc(-c4cccc5cnccc45)c3n2)cc1 [Compound I-41, 5-[2-(4-isopropylsulfonylphenyl)-5H-pyrrolo[2,3-b]pyrazin-7-yl]isoquinoline] | < 7.30 |
| Cc1ccsc1-c1c[nH]c2ncc(-c3ccc(S(=O)(=O)C(C)C)cc3)nc12 [Compound I-28, 2-(4-isopropylsulfonylphenyl)-7-(3-methyl-2-thienyl)-5H-pyrrolo[2,3-b]pyrazine] | < 7.30 |
| CC(C)S(=O)(=O)c1ccc(-c2cnc3[nH]cc(-c4ccccc4)c3n2)cc1 [Compound I-5, 2-(4-isopropylsulfonylphenyl)-7-phenyl-5H-pyrrolo[2,3-b]pyrazine] | < 7.30 |

| Compound | pKi |
| --- | --- |
| CC(C)S(=O)(=O)c1ccc(-c2cnc3[nH]cc(-c4cc5ccccc5n4C(=O)OC(C)(C)C)c3n2)cc1 [Compound I-61, tert-butyl 2-[2-(4-isopropylsulfonylphenyl)-5H-pyrrolo[2,3-b]pyrazin-7-yl]indole-1-carboxylate] | < 7.30 |
| CC(C)S(=O)(=O)c1ccc(-c2cnc3[nH]cc(-c4sccc4C(=O)O)c3n2)cc1 [Compound I-63, 2-[2-(4-isopropylsulfonylphenyl)-5H-pyrrolo[2,3-b]pyrazin-7-yl]thiophene-3-carboxylic acid] | 7.30 to 8.00 |
| CC(C)S(=O)(=O)c1ccc(-c2cnc3[nH]cc(-c4cc(O[C@H](C)c5ccccc5Cl)c(C(=O)O)s4)c3n2)cc1 [Compound I-70, 3-[(1R)-1-(2-chlorophenyl)ethoxy]-5-[2-(4-isopropylsulfonylphenyl)-5H-pyrrolo[2,3-b]pyrazin-7-yl]thiophene-2-carboxylic acid] | ≥ 8.00 |
| CC(C)S(=O)(=O)c1ccc(-c2cnc3[nH]cc(-c4ccc(-c5nnn[nH]5)cc4)c3n2)cc1 [Compound I-67, 2-(4-isopropylsulfonylphenyl)-7-[4-(1H-tetrazol-5-yl)phenyl]-5H-pyrrolo[2,3-b]pyrazine] | < 7.30 |
| CC(C)S(=O)(=O)c1ccc(-c2cnc3[nH]cc(-c4cccnc4NC(=O)C(C)(C)C)c3n2)cc1 [Compound I-60, N-[3-[2-(4-isopropylsulfonylphenyl)-5H-pyrrolo[2,3-b]pyrazin-7-yl]-2-pyridyl]2,2-dimethyl-propanamide] | < 7.30 |
| COc1ncc(-c2c[nH]c3ncc(-c4ccc(S(=O)(=O)C(C)C)cc4)nc23)cn1 [Compound I-34, 2-(4-isopropylsulfonylphenyl)-7-(2-methoxypyrimidin-5-yl)-5H-pyrrolo[2,3-b]pyrazine] | 7.30 to 8.00 |
| CC(C)S(=O)(=O)c1ccc(-c2cnc3[nH]cc(-c4cscc4C#N)c3n2)cc1 [Compound I-21, 4-[2-(4-isopropylsulfonylphenyl)-5H-pyrrolo[2,3-b]pyrazin-7-yl]thiophene-3-carbonitrile] | < 7.30 |
| CC(C)S(=O)(=O)c1ccc(-c2cnc3[nH]cc(-c4ccccc4CO)c3n2)cc1 [Compound I-16, [2-[2-(4-isopropylsulfonylphenyl)-5H-pyrrolo[2,3-b]pyrazin-7-yl]phenyl]methanol] | < 7.30 |
| CC(C)S(=O)(=O)c1ccc(-c2cnc3[nH]cc(-c4ccncc4)c3n2)cc1 [Compound I-10, 2-(4-isopropylsulfonylphenyl)-7-(4-pyridyl)-5H-pyrrolo[2,3-b]pyrazine] | 7.30 to 8.00 |
| CC(C)S(=O)(=O)c1ccc(-c2cnc3[nH]cc(-c4ccccc4C#N)c3n2)cc1 [Compound I-8, 2-[2-(4-isopropylsulfonylphenyl)-5H-pyrrolo[2,3-b]pyrazin-7-yl]benzonitrile] | < 7.30 |
| CC(C)S(=O)(=O)c1ccc(-c2cnc3[nH]cc(-c4cn(S(=O)(=O)c5ccccc5)c5ccccc45)c3n2)cc1 [Compound I-59, 7-[1-(benzenesulfonyl)indol-3-yl]-2-(4-isopropylsulfonylphenyl)-5H-pyrrolo[2,3-b]pyrazine] | < 7.30 |
| CC(C)S(=O)(=O)c1ccc(-c2cnc3[nH]cc(-c4cnc(N)nc4)c3n2)cc1 [Compound I-13, 5-[2-(4-isopropylsulfonylphenyl)-5H-pyrrolo[2,3-b]pyrazin-7-yl]pyrimidin-2-amine] | ≥ 8.00 |
| CC(C)S(=O)(=O)c1ccc(-c2cnc3[nH]cc(-c4ccc5[nH]ccc5c4)c3n2)cc1 [Compound I-35, 7-(1H-indol-5-yl)-2-(4-isopropylsulfonylphenyl)-5H-pyrrolo[2,3-b]pyrazine] | 7.30 to 8.00 |
| CC(C)S(=O)(=O)c1ccc(-c2cnc3[nH]cc(-c4cc5c(Cl)cccc5n4C(=O)OC(C)(C)C)c3n2)cc1 [Compound I-58, tert-butyl 4-chloro-2-[2-(4-isopropylsulfonylphenyl)-5H-pyrrolo[2,3-b]pyrazin-7-yl]indole-1-carboxylate] | < 7.30 |
| Cc1ccc(-c2c[nH]c3ncc(-c4ccc(S(=O)(=O)C(C)C)cc4)nc23)cn1 [Compound I-51, 2-(4-isopropylsulfonylphenyl)-7-(6-methyl-3-pyridyl)-5H-pyrrolo[2,3-b]pyrazine] | 7.30 to 8.00 |
| CC(C)S(=O)(=O)c1ccc(-c2cnc3[nH]cc(-c4ccc(OCCCN(C)C)nc4)c3n2)cc1 [Compound I-11, 3[[5-[2-(4-isopropylsulfonylphenyl)-5H-pyrrolo[2,3-b]pyrazin-7-yl]-2-pyridyl]oxy]-N,N-dimethyl-propan-1-amine] | < 7.30 |
